Holding throughout (assay): Poison Plate Assay
Common to all, as to format: cell-based

Assay [1] has as its system Penicillium purpurogenum. Conditions: Penicillium purpurogenum CBS 170.60, ppm total active ingredient, PDA, 22° C., two weeks. As for the experimental part:
(§1) [table] […] [table] MIC values (minimum inhibitory concentration in ppm total active ingredient) were noted and synergy was calculated using the Synergy Index method described by Kull et al. (Kull, […], and R. L. Mayer (1961) “Mixtures of quaternary ammonium compounds and long-chain fatty acids as antifungal agents” Applied Microbiology 9: 538-541; also see Zwart Voorspuij, A. J., and […] (1957) “Some aspects of the notions additivity, synergism and antagonism in the simultaneous activity of two antibacterial agents in vitro” Arch. intern. […] Steinberg, D. C. […] Petrocci, H. A. Green, and J. J. Merianos (1977) “Antimicrobial composition” U.S. Pat. […] MIC), • Qa is the concentration of compound A in ppm, in the mixture, which produced an end point (e.g. MIC), • QB is the concentration of compound B in ppm, acting alone, which produced an end point (e.g. MIC), • Qb is the concentration of compound B in ppm, in the mixture, which produced an end point (e.g. MIC). […] When the SI is equal to 1.0, additivity is indicated.

In assay [2] the test system is Pseudomonas aeruginosa. Conditions: Pseudomonas aeruginosa NCIB 8295, ppm total active ingredient, Tryptose Agar, 27° C., one week. Here is the method: as §1
Assay [3] deals with Rhodoturula rubra. Conditions: 336 h, Rhodoturula rubra B 52183, ppm total active ingredient, PDA, 22° C., two weeks, read-out: MIC-values in ppm (minimum inhibitory concentration). As for the experimental part: as §1
The mark [4] stands for this setting: imazalil with silver perchlorate, label = % imazalil + % silver perchlorate.

Read-outs that look alike come from different tables or passages of the source.

Consider `C=CCOC(Cn1ccnc1)c1ccc(Cl)cc1Cl` (stereo not drawn) [imazalil], for which the MIC in assay [1] (CBS170, 336 h, imazalil with silver nitrate, label = % imazalil + % silver nitrate, read-out: MIC-values in ppm (minimum inhibitory concentration)) was determined as 158 µg/mL; in assay [2] (NCIB8295, 168 h, imazalil with silver nitrate, label = % imazalil + % silver nitrate, read-out: MIC-values in ppm (minimum inhibitory concentration)), 667 µg/mL; in assay [3] (imazalil with silver nitrate, label = % imazalil + % silver nitrate), 158 µg/mL; in assay [3] (setting [4]), 119 µg/mL. In addition, the “MIC-values in ppm (minimum inhibitory concentration)” value is 158 ppm in assay [1] (setting [4]) and 667 ppm in assay [2] (setting [4]).

Values taken from patent publication US9000017B2, “Combinations of imazalil and silver compounds” (Janssen Pharmaceutica NV, priority 2006, dated 2015).
